“And” between values parts separate entries of the source, which are not always exact repeats. Equal values may be shown once.
System: NCI-H841 complex tumor spheroid viability
Test: Anticancer human tumor NCI-H841 cell line growth inhibition;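 also: spheroids exposed to compounds for 7 days before readout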;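 as to viability, T/C: 100% = DMSO vehicle control wells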
Conditions: for IC50: curve of first compound; for viability, T/C: stronger effect = lower value
Procedure, shortened: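 Complex spheroids of malignant cells with endothelial cells and mesenchymal stem cells; agents alone or combined, from near clinical Cmax (or 10 microM if unknown) down in half-log steps, 0.25% DMSO final.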

**Q.** `CC(C)n1c(=O)n(C)c2cnc3cc(F)c(-c4ccc(OCCCN5CCCCC5)nc4)cc3c21` + CC[C@@]1(O)C(=O)OCc2c1cc1n(c2=O)Cc2cc3c(CN(C)C)c(O)ccc3nc2-1 was tested. Which IC50 (second compound 0.003 µM) did it give?
**A.** Its IC50 is < 31.6 nM.

**Q.** What about the IC50 (second compound 0.00949 µM) of the same compound?
**A.** Its IC50 is < 31.6 nM.

**Q.** What about the IC50 (second compound 0.03 µM) of the same compound?
**A.** Its IC50 is < 31.6 nM.

**Q.** What about the IC50 (second compound 0.0949 µM) of the same compound?
**A.** The IC50 was < 31.6 nM.

**Q.** And the IC50 (second compound 0.3 µM)?
**A.** The IC50 was < 31.6 nM.

**Q.** And the viability, T/C (second compound 0.003 µM, first compound 0.0316 µM)?
**A.** Its viability, T/C is 47%.

**Q.** What about the viability, T/C (second compound 0.003 µM, first compound 0.1 µM) of the same compound?
**A.** Its viability, T/C is 51.3%.

**Q.** And the viability, T/C (second compound 0.003 µM, first compound 0.316 µM)?
**A.** The viability, T/C was 56.6%.

**Q.** What about the viability, T/C (second compound 0.003 µM, first compound 1 µM) of the same compound?
**A.** The viability, T/C was 63.5%.

**Q.** What about the viability, T/C (second compound 0.003 µM, first compound 3.16 µM) of the same compound?
**A.** The viability, T/C was 65.1%.

**Q.** What about the viability, T/C (second compound 0.003 µM, first compound 10 µM) of the same compound?
**A.** Its viability, T/C is 43.2%.

**Q.** What about the viability, T/C (second compound 0.00949 µM, first compound 0.0316 µM) of the same compound?
**A.** The viability, T/C was 4.68%.

**Q.** What about the viability, T/C (second compound 0.00949 µM, first compound 0.1 µM) of the same compound?
**A.** The viability, T/C was 4.13%.

**Q.** What about the viability, T/C (second compound 0.00949 µM, first compound 0.316 µM) of the same compound?
**A.** Its viability, T/C is 6.57%.

**Q.** And the viability, T/C (second compound 0.00949 µM, first compound 1 µM)?
**A.** The viability, T/C was 6.6%.

**Q.** And the viability, T/C (second compound 0.00949 µM, first compound 3.16 µM)?
**A.** Its viability, T/C is 10.3%.

**Q.** And the viability, T/C (second compound 0.00949 µM, first compound 10 µM)?
**A.** Its viability, T/C is 7.04%.

**Q.** And the viability, T/C (second compound 0.03 µM, first compound 0.0316 µM)?
**A.** The viability, T/C was 1.24%.

**Q.** What about the viability, T/C (second compound 0.03 µM, first compound 0.1 µM) of the same compound?
**A.** Its viability, T/C is 1.19%.

**Q.** And the viability, T/C (second compound 0.03 µM, first compound 0.316 µM)?
**A.** Its viability, T/C is 1.09%.

**Q.** What about the viability, T/C (second compound 0.03 µM, first compound 1 µM) of the same compound?
**A.** Its viability, T/C is 1.3%.

**Q.** And the viability, T/C (second compound 0.03 µM, first compound 3.16 µM)?
**A.** The viability, T/C was 1.9%.

**Q.** What about the viability, T/C (second compound 0.03 µM, first compound 10 µM) of the same compound?
**A.** Its viability, T/C is 2.19%.

**Q.** And the viability, T/C (second compound 0.0949 µM, first compound 0.0316 µM)?
**A.** Its viability, T/C is 2.12%.

**Q.** And the viability, T/C (second compound 0.0949 µM, first compound 0.1 µM)?
**A.** The viability, T/C was 1.53%.

**Q.** And the viability, T/C (second compound 0.0949 µM, first compound 0.316 µM)?
**A.** Its viability, T/C is 1.21%.

**Q.** What about the viability, T/C (second compound 0.0949 µM, first compound 1 µM) of the same compound?
**A.** Its viability, T/C is 1.06%.

**Q.** What about the viability, T/C (second compound 0.0949 µM, first compound 3.16 µM) of the same compound?
**A.** Its viability, T/C is 1.07%.

**Q.** And the viability, T/C (second compound 0.0949 µM, first compound 10 µM)?
**A.** Its viability, T/C is 1.41%.

**Q.** What about the viability, T/C (second compound 0.3 µM, first compound 0.0316 µM) of the same compound?
**A.** The viability, T/C was 2.29%.

**Q.** And the viability, T/C (second compound 0.3 µM, first compound 0.1 µM)?
**A.** Its viability, T/C is 2.08%.

**Q.** What about the viability, T/C (second compound 0.3 µM, first compound 0.316 µM) of the same compound?
**A.** Its viability, T/C is 1.55%.

**Q.** What about the viability, T/C (second compound 0.3 µM, first compound 1 µM) of the same compound?
**A.** Its viability, T/C is 0.71%.

**Q.** What about the viability, T/C (second compound 0.3 µM, first compound 3.16 µM) of the same compound?
**A.** The viability, T/C was 0.65%.

**Q.** What about the viability, T/C (second compound 0.3 µM, first compound 10 µM) of the same compound?
**A.** Its viability, T/C is 0.78%.

**Q.** `CNCc1ccc(-c2cc(-c3nc(-c4ccc(S(=O)(=O)C(C)C)cc4)cnc3N)on2)cc1` + COc1cc2c(cc1O)CCNC21CSC2c3c(OC(C)=O)c(C)c4c(c3C(COC1=O)N1C(O)C3Cc5cc(C)c(OC)c(O)c5C(C21)N3C)OCO4 was tested. Which IC50 (second compound 30 pM) did it give?
**A.** The IC50 was 205 nM.

**Q.** What about the IC50 (second compound 94.9 pM) of the same compound?
**A.** The IC50 was 136 nM.

**Q.** What about the IC50 (second compound 0.0003 µM) of the same compound?
**A.** Its IC50 is < 9.49 nM.

**Q.** And the IC50 (second compound 0.000949 µM)?
**A.** Its IC50 is < 9.49 nM.

**Q.** What about the IC50 (second compound 0.003 µM) of the same compound?
**A.** Its IC50 is < 9.49 nM.

**Q.** What about the viability, T/C (second compound 30 pM, first compound 0.00949 µM) of the same compound?
**A.** Its viability, T/C is 97.6%.

**Q.** And the viability, T/C (second compound 30 pM, first compound 0.03 µM)?
**A.** The viability, T/C was 99.6%.

**Q.** What about the viability, T/C (second compound 30 pM, first compound 0.0949 µM) of the same compound?
**A.** The viability, T/C was 86.8%.

**Q.** What about the viability, T/C (second compound 30 pM, first compound 0.3 µM) of the same compound?
**A.** The viability, T/C was 31.6%.

**Q.** And the viability, T/C (second compound 30 pM, first compound 0.949 µM)?
**A.** Its viability, T/C is 7.14%.

**Q.** What about the viability, T/C (second compound 30 pM, first compound 3 µM) of the same compound?
**A.** The viability, T/C was 1.78%.

**Q.** What about the viability, T/C (second compound 94.9 pM, first compound 0.00949 µM) of the same compound?
**A.** The viability, T/C was 93.8%.

**Q.** What about the viability, T/C (second compound 94.9 pM, first compound 0.03 µM) of the same compound?
**A.** The viability, T/C was 92.6%.

**Q.** And the viability, T/C (second compound 94.9 pM, first compound 0.0949 µM)?
**A.** Its viability, T/C is 66.2%.

**Q.** And the viability, T/C (second compound 94.9 pM, first compound 0.3 µM)?
**A.** The viability, T/C was 13.6%.

**Q.** What about the viability, T/C (second compound 94.9 pM, first compound 0.949 µM) of the same compound?
**A.** Its viability, T/C is 2.49%.

**Q.** What about the viability, T/C (second compound 94.9 pM, first compound 3 µM) of the same compound?
**A.** Its viability, T/C is 1.05%.

**Q.** And the viability, T/C (second compound 0.0003 µM, first compound 0.00949 µM)?
**A.** The viability, T/C was 44.8%.

**Q.** What about the viability, T/C (second compound 0.0003 µM, first compound 0.03 µM) of the same compound?
**A.** Its viability, T/C is 28.3%.

**Q.** What about the viability, T/C (second compound 0.0003 µM, first compound 0.0949 µM) of the same compound?
**A.** The viability, T/C was 7.38%.

**Q.** And the viability, T/C (second compound 0.0003 µM, first compound 0.3 µM)?
**A.** The viability, T/C was 1.78%.

**Q.** What about the viability, T/C (second compound 0.0003 µM, first compound 0.949 µM) of the same compound?
**A.** The viability, T/C was 1.69%.

**Q.** What about the viability, T/C (second compound 0.0003 µM, first compound 3 µM) of the same compound?
**A.** Its viability, T/C is 0.41%.

**Q.** What about the viability, T/C (second compound 0.000949 µM, first compound 0.00949 µM) of the same compound?
**A.** The viability, T/C was 2.86%.

**Q.** What about the viability, T/C (second compound 0.000949 µM, first compound 0.03 µM) of the same compound?
**A.** Its viability, T/C is 2.26%.

**Q.** What about the viability, T/C (second compound 0.000949 µM, first compound 0.0949 µM) of the same compound?
**A.** The viability, T/C was 1.25%.

**Q.** What about the viability, T/C (second compound 0.000949 µM, first compound 0.3 µM) of the same compound?
**A.** Its viability, T/C is 0.59%.

**Q.** And the viability, T/C (second compound 0.000949 µM, first compound 0.949 µM)?
**A.** Its viability, T/C is 0.5%.

**Q.** What about the viability, T/C (second compound 0.000949 µM, first compound 3 µM) of the same compound?
**A.** The viability, T/C was 0.09%.

**Q.** What about the viability, T/C (second compound 0.003 µM, first compound 0.00949 µM) of the same compound?
**A.** The viability, T/C was 0.1%.

**Q.** What about the viability, T/C (second compound 0.003 µM, first compound 0.03 µM) of the same compound?
**A.** Its viability, T/C is 0.1%.

**Q.** What about the viability, T/C (second compound 0.003 µM, first compound 0.0949 µM) of the same compound?
**A.** Its viability, T/C is 0.09%.

**Q.** And the viability, T/C (second compound 0.003 µM, first compound 0.3 µM)?
**A.** Its viability, T/C is 0.1%.

**Q.** What about the viability, T/C (second compound 0.003 µM, first compound 0.949 µM) of the same compound?
**A.** Its viability, T/C is 0.09%.

**Q.** What about the viability, T/C (second compound 0.003 µM, first compound 3 µM) of the same compound?
**A.** The viability, T/C was 0.15%.

**Q.** With `Cn1ncnc1[C@H]1c2n[nH]c(=O)c3cc(F)cc(c23)N[C@@H]1c1ccc(F)cc1` as the compound, how does the viability, T/C (compound 0.00949 µM) read?
**A.** Its viability, T/C is 90.1% and 29.7% and 97.4%.

**Q.** And the viability, T/C (compound 0.03 µM)?
**A.** Its viability, T/C is 85.4% and 30.6% and 90.1%.

**Q.** And the viability, T/C (compound 0.0949 µM)?
**A.** The viability, T/C was 80.3% and 9.88% and 89.6%.

**Q.** And the viability, T/C (compound 0.3 µM)?
**A.** The viability, T/C was 55.7% and 62.9% and 83.3%.

**Q.** What about the viability, T/C (compound 3 µM) of the same compound?
**A.** The viability, T/C was 7.92% and 2.5% and 1.44%.

Source: PubChem BioAssay AID1845213 (Molecular Pharmacology Branch, DTP, NCI, 2023)
